Results as given in US20220125765A1, “PHARMACEUTICAL COMBINATIONS COMPRISING MEBENDAZOLE AND A STRONG OR MODERATE CYP1A2 INHIBITOR” (ZEPHAPHARM LTD, priority 2019, published 2022).
Where two headings read alike, the source gives them in different places.

How the values were obtained:
Type in all cases: cell-based
NBXF SHEP = assay: 2D monolayer CellTiter-Blue viability, neuroblastoma SHEP; settings: 72 h
Description: (§1) Seventeen compounds, including mebendazole (Batch no. […] Efficacy of compounds was assessed using CellTiter-Blue® Cell Viability Assay. Anti-tumor activity is expressed as absolute and relative IC50 and IC70 values, calculated by non-linear regression analysis.

[1] = test system: 6 ovarian cancer (OVXF) and 6 renal cancer (RXF) cell lines; assay: 2D monolayer CellTiter-Blue viability, panel geometric mean (Example 10); settings: 12 cell lines, 72 h
Description: (§2) Mebendazole was tested in vitro across a panel of 12 tumor cell lines of ovarian and renal cancer by using a 2D monolayer assay. […] OVXF 899L and RXF 486L are P-gp expressing, multidrug resistant cell lines.
(§3) Anti-tumor activity is expressed as absolute and relative IC50/70 values, calculated by 4-parameter non-linear curve fit.

RXF 1781L = assay: 2D monolayer CellTiter-Blue viability, renal cancer RXF 1781L; settings: for Test/Control (%) at Drug Concentration: 72 h; for IC50: RXF 1781L
Description: as §2, §3

SXFO Saos-2 = assay: 2D monolayer CellTiter-Blue viability, osteosarcoma Saos-2; settings: 72 h
Description: as §1

SXFS TE671 = assay: 2D monolayer CellTiter-Blue viability, soft tissue sarcoma TE671; settings: 72 h
Description: as §1

NBXF IMR-32 = assay: 2D monolayer CellTiter-Blue viability, neuroblastoma IMR-32; settings: 72 h
Description: as §1

**Q.** Which “Test/Control (%) at Drug Concentration” value (NBXF SHEP; 1.0E−02 μM) does the source give for `COC(=O)Nc1nc2ccc(C(=O)c3ccccc3)cc2[nH]1` [Mebendazole, methyl N-(6-benzoyl-1H-benzimidazol-2-yl)carbamate] here?
**A.** 72%

**Q.** What about the “Test/Control (%) at Drug Concentration” value (NBXF SHEP; 3.2E+00 μM) of the same compound?
**A.** 27%

**Q.** And the “Test/Control (%) at Drug Concentration” value (NBXF SHEP; 3.2E+01 μM)?
**A.** 18%

**Q.** And the “Test/Control (%) at Drug Concentration” value (NBXF SHEP; 3.2E−01 μM)?
**A.** 47%

**Q.** And the “Test/Control (%) at Drug Concentration” value (NBXF SHEP; 3.2E−02 μM)?
**A.** 68%

**Q.** And the “Test/Control (%) at Drug Concentration” value (NBXF SHEP; 3.2E−03 μM)?
**A.** 72%

**Q.** And the “Geometric mean Abs. IC70” value [1]?
**A.** 1515 nM

**Q.** And the “Geometric mean Rel. IC70” value [1]?
**A.** 801 nM

**Q.** And the IC50 ([1]; read-out: Geometric mean Abs. IC50)?
**A.** 941 nM

**Q.** And the IC50 ([1]; read-out: Geometric mean Rel. IC50)?
**A.** 587 nM

**Q.** And the “Test/Control (%) at Drug Concentration” value (RXF 1781L; RXF 1781, 1.0E+00 μM)?
**A.** 25%

**Q.** What about the “Test/Control (%) at Drug Concentration” value (RXF 1781L; RXF 1781, 1.0E−01 μM) of the same compound?
**A.** 91%

**Q.** What about the “Test/Control (%) at Drug Concentration” value (RXF 1781L; RXF 1781, 1.0E−02 μM) of the same compound?
**A.** 92%

**Q.** And the “Test/Control (%) at Drug Concentration” value (RXF 1781L; RXF 1781, 1.0E−03 μM)?
**A.** 101%

**Q.** And the “Test/Control (%) at Drug Concentration” value (RXF 1781L; RXF 1781, 1.0E−04 μM)?
**A.** 98%

**Q.** What about the “Test/Control (%) at Drug Concentration” value (RXF 1781L; RXF 1781, 3.2E+00 μM) of the same compound?
**A.** 32%

**Q.** And the “Test/Control (%) at Drug Concentration” value (RXF 1781L; RXF 1781, 3.2E−01 μM)?
**A.** 61%

**Q.** And the “Test/Control (%) at Drug Concentration” value (RXF 1781L; RXF 1781, 3.2E−02 μM)?
**A.** 95%

**Q.** And the “Test/Control (%) at Drug Concentration” value (RXF 1781L; RXF 1781, 3.2E−03 μM)?
**A.** 95%

**Q.** And the “Test/Control (%) at Drug Concentration” value (RXF 1781L; RXF 1781, 3.2E−04 μM)?
**A.** 100%

**Q.** And the “Abs. IC70” value (RXF 1781L; RXF 1781, 72 h)?
**A.** 978 nM

**Q.** And the “Rel. IC70” value (RXF 1781L; RXF 1781, 72 h)?
**A.** 410 nM

**Q.** And the “Bot. (%)” value (RXF 1781L; RXF 1781, 72 h, curve fit)?
**A.** 28%

**Q.** What about the “Top (%)” value (RXF 1781L; RXF 1781, 72 h, curve fit) of the same compound?
**A.** 96%

**Q.** What about the IC50 (RXF 1781L; RXF 1781, 72 h, read-out: Abs. IC50) of the same compound?
**A.** 395 nM

**Q.** And the IC50 (RXF 1781L; RXF 1781, 72 h, read-out: Rel. IC50)?
**A.** 309 nM

**Q.** And the “Test/Control (%) at Drug Concentration” value (SXFO Saos-2; Saos-2, 1.0E+00 μM)?
**A.** 19%

**Q.** What about the “Test/Control (%) at Drug Concentration” value (SXFO Saos-2; Saos-2, 1.0E+01 μM) of the same compound?
**A.** 11%

**Q.** And the “Test/Control (%) at Drug Concentration” value (SXFO Saos-2; Saos-2, 1.0E+02 μM)?
**A.** 6%

**Q.** What about the “Test/Control (%) at Drug Concentration” value (SXFO Saos-2; Saos-2, 1.0E−01 μM) of the same compound?
**A.** 73%

**Q.** And the “Test/Control (%) at Drug Concentration” value (SXFO Saos-2; Saos-2, 1.0E−02 μM)?
**A.** 74%

**Q.** What about the “Test/Control (%) at Drug Concentration” value (SXFO Saos-2; Saos-2, 3.2E+00 μM) of the same compound?
**A.** 20%

**Q.** What about the “Test/Control (%) at Drug Concentration” value (SXFO Saos-2; Saos-2, 3.2E+01 μM) of the same compound?
**A.** 12%

**Q.** What about the “Test/Control (%) at Drug Concentration” value (SXFO Saos-2; Saos-2, 3.2E−01 μM) of the same compound?
**A.** 29%

**Q.** What about the “Test/Control (%) at Drug Concentration” value (SXFO Saos-2; Saos-2, 3.2E−02 μM) of the same compound?
**A.** 73%

**Q.** What about the “Test/Control (%) at Drug Concentration” value (SXFO Saos-2; Saos-2, 3.2E−03 μM) of the same compound?
**A.** 77%

**Q.** And the “Test/Control (%) at Drug Concentration” value (SXFS TE671; TE671, 1.0E+00 μM)?
**A.** 38%

**Q.** What about the “Test/Control (%) at Drug Concentration” value (SXFS TE671; TE671, 1.0E+01 μM) of the same compound?
**A.** 17%

**Q.** What about the “Test/Control (%) at Drug Concentration” value (SXFS TE671; TE671, 1.0E+02 μM) of the same compound?
**A.** 5%

**Q.** And the “Test/Control (%) at Drug Concentration” value (SXFS TE671; TE671, 1.0E−01 μM)?
**A.** 72%

**Q.** And the “Test/Control (%) at Drug Concentration” value (SXFS TE671; TE671, 1.0E−02 μM)?
**A.** 87%

**Q.** What about the “Test/Control (%) at Drug Concentration” value (SXFS TE671; TE671, 3.2E+00 μM) of the same compound?
**A.** 32%

**Q.** What about the “Test/Control (%) at Drug Concentration” value (SXFS TE671; TE671, 3.2E+01 μM) of the same compound?
**A.** 13%

**Q.** And the “Test/Control (%) at Drug Concentration” value (SXFS TE671; TE671, 3.2E−01 μM)?
**A.** 45%

**Q.** What about the “Test/Control (%) at Drug Concentration” value (SXFS TE671; TE671, 3.2E−02 μM) of the same compound?
**A.** 85%

**Q.** What about the “Test/Control (%) at Drug Concentration” value (SXFS TE671; TE671, 3.2E−03 μM) of the same compound?
**A.** 80%

**Q.** And the “Test/Control (%) at Drug Concentration” value (NBXF IMR-32; IMR-32, 1.0E+00 μM)?
**A.** 1%

**Q.** And the “Test/Control (%) at Drug Concentration” value (NBXF IMR-32; IMR-32, 1.0E+01 μM)?
**A.** 0%

**Q.** What about the “Test/Control (%) at Drug Concentration” value (NBXF IMR-32; IMR-32, 1.0E+02 μM) of the same compound?
**A.** −2%

**Q.** What about the “Test/Control (%) at Drug Concentration” value (NBXF IMR-32; IMR-32, 1.0E−01 μM) of the same compound?
**A.** 81%

**Q.** What about the “Test/Control (%) at Drug Concentration” value (NBXF IMR-32; IMR-32, 1.0E−02 μM) of the same compound?
**A.** 95%

**Q.** And the “Test/Control (%) at Drug Concentration” value (NBXF IMR-32; IMR-32, 3.2E+00 μM)?
**A.** 1%

**Q.** What about the “Test/Control (%) at Drug Concentration” value (NBXF IMR-32; IMR-32, 3.2E+01 μM) of the same compound?
**A.** −1%

**Q.** And the “Test/Control (%) at Drug Concentration” value (NBXF IMR-32; IMR-32, 3.2E−01 μM)?
**A.** 10%

**Q.** And the “Test/Control (%) at Drug Concentration” value (NBXF IMR-32; IMR-32, 3.2E−02 μM)?
**A.** 94%

**Q.** What about the “Test/Control (%) at Drug Concentration” value (NBXF IMR-32; IMR-32, 3.2E−03 μM) of the same compound?
**A.** 97%
